Source: DBAASP
≈ marks a conversion by molar mass, not a printed value. Each block holds one compound with its values, some of them ahead of it.

Experiments:
Assay in all cases: ≥ marks a high value that may be exact or a test limit, other limits are often not marked, values filed in µg/mL are converted to µM
Bacillus megaterium Bm11 = system: Bacillus megaterium Bm11
[1] = system: Bacillus subtilis ATCC 6633
[2] = system: Candida albicans ATCC 90028
Escherichia coli D21 = system: Escherichia coli D21
[3] = system: Malassezia furfur KCTC 7744
Micrococcus luteus Ml11 = system: Micrococcus luteus Ml11
[4] = system: Proteus vulgaris OX19 ATCC 6380
[5] = system: Pseudomonas aeruginosa OT97
[6] = system: Shigella flexneri ATCC 203
[7] = system: Staphylococcus aureus Cowan 1
[8] = system: Staphylococcus aureus JC-1
[9] = system: Trichophyton rubrum KCTC 6345
[10] = system: Trichosporon beigelii KCTC 7707
[11] = system: Bacillus subtilis AB91021
[12] = system: Bacillus thuringiensis AB92037
[13] = system: Enterococcus faecalis P675
Escherichia coli AB94012 = system: Escherichia coli AB94012
[14] = system: Micrococcus luteus AB93113
[15] = system: Pseudomonas aeruginosa AB93066
[16] = system: Staphylococcus aureus AB94004
[17] = system: Staphylococcus aureus P1369
[18] = system: Staphylococcus aureus P1374
[19] = system: Staphylococcus aureus P1381
[20] = system: Staphylococcus aureus P1386
[21] = system: Staphylococcus aureus P838
Bacillus cereus = system: Bacillus cereus
[22] = system: Enterococcus faecalis ATCC 29212
Leuconostoc lactis = system: Leuconostoc lactis
Listeria innocua = system: Listeria innocua
[23] = system: Micrococcus luteus ATCC 9341
[24] = system: Staphylococcus aureus ATCC 29213
[25] = system: Staphylococcus epidermidis ATCC 14990
Streptococcus uberis = system: Streptococcus uberis
[26] = system: Bacillus anthracis Sterne 34F2
[27] = system: Bacillus subtilis ATCC 9372
[28] = system: Burkholderia thailandensis
Escherichia coli W3110 = system: Escherichia coli W3110
[29] = system: Staphylococcus aureus UL12
Bacillus anthracis = system: Bacillus anthracis
Escherichia coli = system: Escherichia coli
Staphylococcus aureus = system: Staphylococcus aureus

Structure (SMILES): CC[C@H](C)[C@H](N)C(=O)N[C@H](C(=O)NCC(=O)N[C@@H](Cc1cnc[nH]1)C(=O)N[C@@H](CC(C)C)C(=O)N[C@H](C(=O)N[C@@H](CCCCN)C(=O)N[C@H](C(=O)N[C@@H](C)C(=O)N[C@@H](CC(C)C)C(=O)NCC(=O)N[C@@H](CCSC)C(=O)N[C@@H](CC(C)C)C(=O)NCC(=O)N[C@@H](CC(C)C)C(N)=O)[C@@H](C)O)[C@@H](C)CC)[C@@H](C)CC [IIGHLIKTALGMLGL]
MIC (Bacillus cereus): 25 µM (≈ 38.7 µg/mL) | MIC [22]: 100 µM (≈ 155 µg/mL) | MIC (Leuconostoc lactis): 12 µM (≈ 18.6 µg/mL) | MIC (Listeria innocua): ≥ 50 µM | MIC [23]: 25 µM (≈ 38.7 µg/mL) | MIC [24]: 12 µM (≈ 18.6 µg/mL) | MIC [25]: 25 µM (≈ 38.7 µg/mL) | MIC (Streptococcus uberis): 25 µM (≈ 38.7 µg/mL)

Structure (SMILES): CC[C@H](C)[C@H](N)C(=O)N[C@@H](CC(C)C)C(=O)NCC(=O)N1CCC[C@H]1C(=O)N[C@H](C(=O)N[C@@H](CC(C)C)C(=O)NCC(=O)N[C@@H](CC(C)C)C(=O)N[C@H](C(=O)N[C@@H](CO)C(=O)N[C@@H](CC(=O)O)C(=O)N[C@H](C(=O)N[C@@H](CC(C)C)C(=O)N[C@@H](CC(=O)O)C(=O)N[C@@H](CC(=O)O)C(=O)N[C@H](C(=O)N[C@@H](CC(C)C)C(=O)NCC(=O)N[C@H](C(=O)N[C@@H](CC(C)C)C(=O)O)[C@@H](C)CC)C(C)C)[C@@H](C)O)C(C)C)C(C)C [ILGPVLGLVSDTLDDVLGIL]
MIC [26]: ≥ 100 µM | MIC [27]: ≥ 50 µM | MIC [28]: ≥ 50 µM | MIC (Escherichia coli W3110): ≥ 180 µM | MIC [29]: ≥ 180 µM

Structure (SMILES): CC[C@H](C)[C@H](NC(=O)[C@H](CC(C)C)NC(=O)[C@H](C)NC(=O)[C@@H]1CCCN1C(=O)[C@H](Cc1ccccc1)NC(=O)[C@@H](NC(=O)[C@H](CCCCN)NC(=O)[C@H](CO)NC(=O)[C@H](C)NC(=O)[C@@H](NC(=O)[C@H](CCCN=C(N)N)NC(=O)[C@H](Cc1ccccc1)NC(=O)[C@@H](NC(=O)[C@@H](NC(=O)[C@@H]1CCCN1C(=O)[C@@H](N)CC(C)C)C(C)C)C(C)C)C(C)C)C(C)C)C(=O)N[C@@H](CO)C(=O)N[C@@H](CCCCN)C(=O)N[C@@H](CC(C)C)C(=O)N[C@H](C(=O)O)[C@@H](C)O [LPVVFRVASKVFPALISKLT]
MIC (Bacillus anthracis): ≥ 58.6 µM | MIC (Bacillus cereus): ≥ 117 µM | MIC (Escherichia coli): > 117 µM | MIC (Staphylococcus aureus): 117 µM (≈ 256 µg/mL)

The remaining lines, values ahead:

MIC (Bacillus megaterium Bm11): 1.95 µM (≈ 3.8 µg/mL) | MIC [1]: 20 µM (≈ 38.9 µg/mL) | MIC [2]: 6.3 µM (≈ 12.3 µg/mL) | MIC (Escherichia coli D21): ≥ 410 µM | MIC [3]: 12.5 µM (≈ 24.3 µg/mL) | MIC (Micrococcus luteus Ml11): 23 µM (≈ 44.8 µg/mL) | MIC [4]: ≥ 1000 µM | MIC [5]: ≥ 617 µM | MIC [6]: ≥ 205 µM | MIC [7]: ≥ 1000 µM | MIC [8]: ≥ 94 µM | MIC [9]: 25 µM (≈ 48.7 µg/mL) | MIC [10]: 6.3 µM (≈ 12.3 µg/mL)
Structure (SMILES): CC[C@H](C)[C@H](NC(=O)[C@H](CCCCN)NC(=O)[C@@H](NC(=O)[C@@H](NC(=O)[C@H](CCC(N)=O)NC(=O)CNC(=O)[C@H](Cc1cnc[nH]1)NC(=O)[C@H](CCC(N)=O)NC(=O)[C@H](CC(N)=O)NC(=O)[C@H](CCC(N)=O)NC(=O)[C@@H](NC(=O)[C@H](CCCCN)NC(=O)[C@@H](N)Cc1ccccc1)C(C)C)C(C)C)C(C)C)C(=O)N[C@@H](Cc1ccccc1)C(=O)N[C@@H](Cc1cnc[nH]1)C(=O)N[C@@H](Cc1cnc[nH]1)C(=O)O [FKVQNQHGQVVKIFHH]

MIC [11]: ≥ 64.5 µM | MIC [12]: ≥ 64.5 µM | MIC [13]: ≥ 32.2 µM | MIC (Escherichia coli AB94012): ≥ 64.5 µM | MIC [14]: ≥ 64.5 µM | MIC [15]: ≥ 64.5 µM | MIC [16]: 8.06 µM (≈ 12.5 µg/mL) | MIC [17]: ≥ 80.6 µM | MIC [18]: ≥ 129 µM | MIC [19]: ≥ 322 µM | MIC [20]: ≥ 161 µM | MIC [21]: ≥ 32.2 µM
Structure (SMILES): CC(C)C[C@H](NC(=O)[C@H](CO)NC(=O)CNC(=O)[C@H](Cc1c[nH]c2ccccc12)NC(=O)[C@H](Cc1ccccc1)NC(=O)CN)C(=O)N[C@@H](Cc1c[nH]c2ccccc12)C(=O)N[C@@H](CCC(=O)O)C(=O)NCC(=O)N[C@H](C(=O)N[C@@H](CCCCN)C(=O)N[C@@H](CO)C(=O)N[C@H](C(=O)N[C@H](C(N)=O)C(C)C)C(C)C)C(C)C [GFWGSLWEGVKSVV]
